Source: patent US10376545B2, “Methods for producing hormone secreting cells in a subject” (ViaCyte, Inc., priority 2013, dated 2019)

Legend:
[1] = test system: INS, GCG, SST, GHRL, PDX1, NKX6.1, NGN3, ID1 expression; assay: Nanostring mRNA analysis of endocrine cell cultures; format: cell-based, human; conditions: for pancreatic-lineage gene expression: agent at days 30-35 during stage 7, analyzed at d35
[2] = test system: re-aggregated endocrine cell aggregates; assay: Cell-to-cell association of re-aggregated endocrine cell aggregates (stereomicroscope images); format: cell-based, human; conditions: 10 μM Y-27632, Matrigel 0.05% v/v
Description: In Example 11 above, the cell aggregates were dissociated and re-aggregated or re-associated between stage 6 and 7. Dissociation was performed using Accutase on or around day 20 and re-aggregated in rotation culture, substantially as described in Schulz et al. supra. The re-aggregation removes certain PEC sub-populations including any remaining non-endocrine (CHGA−) sub-populations as well as other non-endocrine cells as described in more detail in Kelly et al. (2011), supra. Endocrine cells have affinity for each other, however, this interaction in vitro is relatively weak, even the re-aggregated cells at stages 6/7 were only loosely associated. So, studies were performed to test various factors and agents for their ability to increase the cell-to-cell interactions within the endocrine cell aggregates.
The combination of Y-27632 and Matrigel increased at least for example the cell-to-cell interaction of the cell aggregates over either component alone.
A differentiated culture produced substantially as described in Example 12, at day 20 was dissociated with Accutase and re-aggregated in db with 5% FBS (lower concentrations of FBS, i.e. 2% or 1% are also effective) and DNAse. Y-27632 was not included in the re-aggregation medium as doing so would result in incorporation of non-endocrine (CHGA−) sub-population as well as other non-endocrine cells into the newly formed aggregates. […]

[3] = test system: hES-derived cell aggregates; assay: Cell aggregate size / cell mass in suspension culture (imaging); format: cell-based, human; conditions: 3 days of 50 ng/mL at stage 3 as compared to 2 days
Description: Preliminary studies were performed using Heregulin and FGF. In certain of these studies, Rho-kinase inhibitor, Y-27632, was included. […] An increase in cell aggregate size is advantageous in that it results in higher cell mass for later implantation and testing for function in animals.
Various growth factors were explored for their ability to suppress genes such as NGN3 during stages 3 and 4. One candidate growth factor was Activin which has diverse functions in stem cell expansion and differentiation. For example, at low levels (e.g. 10 ng/mL), Activin helps maintain pluripotent stem cell pluripotency and cell proliferation. At higher levels (e.g. 100 ng/mL) Activin acts as a differentiation growth factor responsible for definitive endoderm production at stage 1 (see e.g., Table 8). To test its effect on repressing cells committed to the endocrine lineage (CHGA+) during PEC formation, Applicant first tested Activin at a mid-level concentration of about 50 ng/mL with standard adherent differentiation.
So, Activin levels less than about 25 ng/mL are acceptable for maintaining cell mass and yield. Applicant then performed flow cytometry analysis on these cell cultures to determine whether Activin at low levels during stages 3 and 4 had any effect on cell aggregate composition; see Table 14. […]

PEC derived from hESC = assay: Flow cytometry analysis of PEC derived from hESC (CHGA, NKX6.1, PDX1 sub-populations); format: cell-based, human
Description: So, Activin levels less than about 25 ng/mL are acceptable for maintaining cell mass and yield. Applicant then performed flow cytometry analysis on these cell cultures to determine whether Activin at low levels during stages 3 and 4 had any effect on cell aggregate composition; see Table 14. […] Advantageously, the PDX1 only and Triple Negative sub-populations are reduced as compared to the control, particularly when Activin is used in stages 3 and 4.
To determine the cell composition of the PEC population with the combination of Activin, Heregulin and Wnt during stage 3, flow cytometry was performed after stage 4 and the PEC cellular composition is shown in Table 14. […] Data from flow cytometry supports and is consistent with data from QPCR that the combination of the three factors (AHW) in general delayed or suppressed differentiation of cells committed to the endocrine lineage (CHGA+) in PEC without affecting the production of the non-endocrine (CHGA−) sub-population. The delayed expression of these genes in vitro is consistent with their on-set (or delay) in in vivo mammalian pancreatic development, whereby NGN3 expression in endocrine differentiation occurs after the on-set of PDX1 and NKX6.1 expression in the non-endocrine (CHGA−) sub-population. Additionally, there was no compromise in the PEC mass and yield. […]
Undifferentiated human ESC were expanded and differentiated substantially as described above in Table 17 Protocol #1 for stages 1-4 and in Schulz et al. (2012) supra, except that during the three (3) days of stage 3, 4 different conditions were compared: (i) 0 noggin (“no noggin”) for all 3 days; (ii) 1 day of Noggin at 50 ng/mL and 2 days with no additional Noggin; (iii) 2 days of Noggin at 50 ng/mL and 1 day with no additional noggin; and (iv) 3 days of Noggin at 50 ng/mL. After stage 3, each of these conditions (i) through (iv) then received the standard stage 4 differentiation media cocktail according to Table 8 and Table 17, but without additional Noggin. […] Moreover, with each additional day of noggin treatment, fewer non-endocrine multipotent pancreatic progenitor sub-populations were produced (compare 90.6% with no noggin to 64.6% with 3 days of noggin treatment).

SOX17 expression = conditions: 1 μg/mL of insulin; cited from earlier work
[4] = 50 ng/mL of FGF2 for 2 days at stage 3
[5] = 50 ng/mL of FGF2 for 3 days at stage 3

CC(C)(C(=O)NCC(F)(F)C(F)(F)F)C(=O)N[C@@H]1C(=O)Nc2ccccc2-c2ccccc21 [RO4929097, reference compound]
NGN3 expression ([1]; 1 μM for 2 days at stage 5, day 15 versus day 13): strongly induced NGN3 expression

C/C(=C\c1ccc(C(=O)O)cc1)c1ccc2c(c1)C(C)(C)CCC2(C)C [TTNPB, 4-[(E)-2-(5,6,7,8-Tetrahydro-5,5,8,8-tetramethyl-2-naphthalenyl)-1-propenyl]benzoic acid, reference compound]
PDX1 expression ([1]; 0.5 nM alone at stages 6 & 7 or stage 7 alone): does not appear to increase PDX1 expression

C[C@@H](N)[C@H]1CC[C@H](C(=O)Nc2ccncc2)CC1 [Y-27632]
cell associations of re-aggregated endocrine cell aggregates [2]: capable of promoting tighter cell associations

NC(=O)c1cccnc1 [nicotinamide, reference compound]
increase in the INS/GCG expression ratio ([1]; stage 6 culture conditions, analyzed at day 21): 3 fold

FGF1: acidic FGF
pancreatic-lineage gene expression [1]: upregulated GCG and SST

FGF2: Fibroblast growth factor 2
cell aggregate size [3]: An increase in cell aggregate size was also observed
pancreatic-lineage gene expression [1]: significant increase in SST expression
CHGA+ (Endocrine) (PEC derived from hESC; [4]): 11.9%
CHGA− NKX6.1− PDX1− (Triple Negative/Residual Cells) (PEC derived from hESC; [4]): 9.15%
CHGA−, NKX6.1+, PDX1+ (Non-endocrine) (PEC derived from hESC; [4]): 79%
CHGA+ (Endocrine) (PEC derived from hESC; [5]): 0.33%
CHGA− NKX6.1− PDX1− (Triple Negative/Residual Cells) (PEC derived from hESC; [5]): 22.7%
CHGA−, NKX6.1+, PDX1+ (Non-endocrine) (PEC derived from hESC; [5]): 76.9%

IGF2: Insulin-like growth factor II
INS expression ([1]; 25 or 100 ng/mL from day 17 for about 3 days, stage 6, data not shown): more capable of inducing INS expression than IGF1

insulin
SOX17 expression is reduced (SOX17 expression): 4 fold
